Data on nine compounds can be found in patent US20150005237A1, “PEPTIDIC INHIBITOR OF SIGNAL TRANSMISSION FROM G-ALPHA-S TO G-ALPHA-I-COUPLED RECEPTOR CASCADES” (UNIVERSITÄT INNSBRUCK, priority 2011, published 2015).

Holding throughout (type): cell-based
For assay [1], the system named is Erk1/2 phosphorylation in δOR-HEK293 cells. Put plainly: MAPK-phosphorylation assay (Erk1/2) in δOR-HEK293 cells. As to conditions: for SNC80-induced Erk1/2 phosphorylation (amplitude and duration): pre-treatment before SNC80. On the procedure:
δOR-HEK293 cells were grown in 12 or 24 well plate formats (DMEM supplemented with 10% FBS). Either 24 or 48 hours after splitting or co-transfection in overexpression studies [transfected with constructs encoding the regulatory (RIIβ) or catalytic subunits (PKAc) of PKA] confluent cells were treated with inhibitors (KT5720 for 60 minutes, pertussis toxin for 16 hours), chemical modulators (forskolin, 6-MBC-cAMP, Sp-5,6-DCI-cBIMPS, Sp-8-PIP-cAMPs, 2-Cl-8-MA-cAMP [all for 15 minutes] or Rp-cAMP for 60 minutes) and/or the δOR ligand SNC80 (for either 3, 6, 10 or 15 minutes). cAMP analogs purchased from Biolog (6-MBC-cAMP, #M012; Sp-5,6-DCI-cBIMPS, #D014; Sp-8-PIP-cAMPs, #P005, 2-Cl-8-MA-cAMP, #C080; Rp-cAMP, #A002S) (see Bobrovskaya et al., Cell. Signal. 19, 1141-1149 (2007); Nguyen et al., Cell. Signal. 16, 1141-1151 (2004); Maronde et al., J. Pineal Res. 27, 170-182 (1999); Ogreid et al., Eur. J. Biochem. 181, 19-31 (1989); Poppe et al., Nat. Methods 5, 277-278 (2008)).
Following treatments at 37° C. for 3, 6, 10 or 15 minutes the reactions were stopped by direct addition of Laemmli sample buffer. Equal amounts of protein (lysates normalized to loading control proteins) were subjected to polyacrylamide gel electrophoresis followed by immunoblotting (IB). To analyze the phosphorylation of Erk1/2 we applied the Phospho-p44/42 MAP Kinase antibody (Cell Signaling Technology, #9101). Quantitative densitometry of immuno blot bands was performed using the program ImageQuant 5.2 (Molecular Dynamics).

The next assay has as its system PKA kinase activity. The assay can be described thus: CREB phosphorylation monitoring of PKA kinase activity. As to conditions: conditions used for the Erk1/2 experiments. On the procedure: We also tested the impact of R:Gαi complex formation on the evolutionary conserved route of signal transmission from Gαi to MAPK9. […] Pre-treatment with forskolin potentiated the SNC80-induced Erk1/2 phosphorylation (FIG. 2c). […] To exclude the possibility that PKA kinase activity could account for this potentiation, we pre-treated cells with the PKA inhibitor KT5720 (unless noted otherwise, all subsequent experiments were carried out in the presence of this kinase activity inhibitor). We confirmed that KT5720 inhibits PKA kinase activity under the conditions used by monitoring CREB phosphorylation (activated independently of Gαi signalling).

Assay [2] concerns the target T1, RIIβ-RlucF[1]:PKAc-RlucF[2] complex (Rattus norvegicus, UniProt P12369).
T1 construct: Renilla luciferase PCA fragment F[1]; expressed in transfected cells
The assay can be described thus: Renilla luciferase PCA of PKA holoenzyme dissociation in HEK293T cells. As to conditions: HEK293T cells stably expressing the PKA reporter. On the procedure:
We have generated a stable HEK293T cell line coexpressing the PCA fusion proteins RIIβ-Rluc-F[1] and PKAc-RlucF[2], as previously described. All cells were grown in DMEM supplemented with 10% FBS. We treated confluent HEK293T cells (stably expressing the PKA reporter) grown in 24 well plate format with varying concentrations and combinations of cAMP analogs 6-MBC-cAMP and Sp-5,6-DCI-cBIMPS (15 min; Biolog, Germany). We pretreated confluent HEK293T cells (stably expressing the PKA reporter) grown in 24 well plate format with 250 μM of Rp-cAMP (60 minutes) or with 6-MBC-cAMP and Sp-5,6-DCI-cBIMPS (=RII selective, each 50 μM; 15 min). We pretreated confluent HEK293T cells (stably expressing the PKA reporter) grown in 24 well plate format for 30 minutes with TAT or Reggai fusion peptides (˜3 μM) followed by exposure to forskolin (100 μM; 15 min). Following treatment, growth medium was exchanged and cells were resuspended in 350 μl of PBS. 100 μl of cell suspensions were transferred to 96-well plates and subjected to bioluminescence analysis using the LMaxTMII384 luminometer (Molecular Devices). Rluc bioluminescence signals were integrated for 10 seconds following addition of the Rluc substrate benzyl-coelenterazine (5 μM; Nanolight). […]

Another assay concerns trimeric Gαi:βγ complex. Put plainly: BRET assay of Gαi1:Gγ2 conformational rearrangement in δOR-HEK293 cells. The source says: δOR-HEK293 cells grown in DMEM supplemented with 10% FBS were transiently transfected with the following constructs: For measurements of the interactions of G protein subunits among each other and with the receptor we transfected Gαi1 with the Renilla luciferase (Rluc) inserted at amino acid position 91 and the UV-shifted GFP variant GFP10 (substitutions: P64L, S147P, and S202P) fused to the C-terminus of […] or the UV-shifted variant GFP2 (substitution: F64L) fused to the C-terminus of the δOR. In overexpression studies, we coexpressed regulatory (RIIβ) or catalytic subunits (PKAc) of PKA. […] Total fluorescence and bioluminescence were evaluated for each well using a FlexStation2 (Molecular Devices) and Mithras LB 940 (Berthold Technologies), respectively. uvGFP fluorescence was excited at 400 nm and read at 515 nm. Fluorescence values were corrected by subtracting the auto-fluorescence of cells not expressing uvGFP. BRET between Rluc and GFP2 or GFP10 was measured after the addition of 5 μM Rluc substrate DeepBlueC (bisdeoxy-coelenterazine, PerkinElmer, Lifescience). BRET signals were derived from the emission detected with the energy acceptor filter (515±15 nm; GFP2/10) divided by the emission detected with the energy donor filter (410±40 nm; Rluc/Rluc3). […]

For the next assay, the system named is R:Gαi3 complexes. The assay can be described thus: cAMP agarose precipitation of R:Gαi3 complexes from COS7 cells. As to conditions: forskolin pre-treatment 15 minutes, 2AHA-cAMP-coupled agarose beads. The procedure:
HEK293, U2OS cells and total brains of mice were homogenized using a Potter S (B. Braun Biotech International) with 15 strikes (lysis buffer: 10 mM sodium phosphate pH 7.2, 150 mM NaCl, 0.05% Triton X100 supplemented with standard protease inhibitors). We clarified the lysate (13000 rpm, 15 min) and precipitated PKA regulatory subunit associated protein complexes with PKA selective 8-AHA-cAMP agarose and Rp-8-AHA-cAMP agarose resin (Biolog, […]) for two hours at 4° C. As negative control experiment we added excess of cAMP (5 mM) to the brain lysates to mask the cAMP binding sites in the R subunits for precipitation. Resin associated proteins were washed four times with lysis buffer and eluted with Laemmli sample buffer. Equal amounts of protein (lysates normalized to loading control proteins) were subjected to polyacrylamide gel electrophoresis followed by immunoblotting with indicated antibodies. We performed densitometric quantification of RIIβ, PKAc and Gαi3 (in each case normalized on the most abundant precipitated protein from the same immunoblot (n=3) to compare complex formation and fold enrichment between holoenzyme (precipitated with Rp-8-AHA-cAMP) and activated R complexes (precipitated with 8-AHA-cAMP).
We then tested whether pre-dissociating endogenous R/Reg and PKAc/Cat subunits would change the stoichiometry of R:Gαi3 or R:PDK1 complexes. […]

The subject of a further assay is Gαs- to Gαi-cascades. The assay can be described thus: Reggai peptide applied in living HEK293 cells: signal transmission from Gαs- to Gαi-cascades. As to conditions: HEK293 cell line. The source says: The present inventors identified and successfully applied the Reggai peptide directly in the living cells, in particular cell culture, HEK293 cell line, and changed the original and conserved Reggai sequence in a model organism (budding yeast) to prevent signal transmission from Gαs- to Gαi-cascades. The Reggai peptide had no effect on sole activation of either cascade, just in the case of simultaneous activation of both types of receptors the Gαs triggered and PKA-mediated elevation of Gαi activities was abolished. In the mammalian system the present inventors used biochemical tools to measure changes of cAMP levels, G protein activities and MAPK activation downstream of Gαi-coupled receptors upon formation of the dynamic interaction between PKA and Gαi.

Where no end group is shown, it is not given here.

T1 sequence (P12369 whole entry, the tested form may be a part, one chain of several): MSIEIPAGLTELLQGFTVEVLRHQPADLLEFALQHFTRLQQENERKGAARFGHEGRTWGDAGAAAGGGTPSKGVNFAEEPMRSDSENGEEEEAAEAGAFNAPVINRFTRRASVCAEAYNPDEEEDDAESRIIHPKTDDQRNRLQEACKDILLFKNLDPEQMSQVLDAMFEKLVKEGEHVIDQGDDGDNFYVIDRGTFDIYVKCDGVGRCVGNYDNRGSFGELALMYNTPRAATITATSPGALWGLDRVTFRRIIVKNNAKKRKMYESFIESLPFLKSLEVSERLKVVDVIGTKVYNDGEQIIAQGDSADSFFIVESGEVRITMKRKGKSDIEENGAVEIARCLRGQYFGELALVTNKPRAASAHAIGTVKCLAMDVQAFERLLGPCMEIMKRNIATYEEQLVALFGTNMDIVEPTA

On to 6-MBC-cAMP, for which the “SNC80-induced Erk1/2 phosphorylation (amplitude and duration)” value (from here on “SNC80-induced Erk1/2 phosphorylation”) in assay [1] is “potentiated”. Regarding `CNc1nc2c(N)nc(Cl)nc2n1C1O[C@@H]2COP(=O)([O-])O[C@H]2[C@H]1O.[Na+]` (stereo partly drawn) [2-Cl-8-MA-cAMP], the “SNC80-induced Erk1/2 phosphorylation” value in assay [1] is “no effect”. Turning to `Nc1ncnc2c1nc(N1CCCCC1)n2[C@@H]1O[C@@H]2COP(=O)(O)O[C@H]2[C@H]1O` [8-PIP-cAMP], the “SNC80-induced Erk1/2 phosphorylation” value in assay [1] is recorded as “no effect”. On to `CCCCCCOC(=O)[C@]1(O)C[C@@H]2O[C@@]1(C)n1c3ccccc3c3c4c(c5c6ccccc6n2c5c31)C(=O)NC4` [KT5720], for which the “PKA kinase activity (CREB phosphorylation)” value with PKA kinase activity is listed as “inhibits”. Turning to `Nc1ncnc2c1ncn2[C@@H]1O[C@@H]2COP(O)(=S)O[C@H]2[C@H]1O` (stereo partly drawn) [Rp-cAMP], in assay [2], the PKA holoenzyme dissociation result was “prevented”. Moreover, in assay [1] (pre-treatment 250 μM, 60 minutes), the “SNC80+RegII subunit activator and SNC80+forskolin mediated Erk1/2 phosphorylation” value is recorded as “decreased”. `C=CCN1C[C@H](C)N([C@H](c2ccc(C(=O)N(CC)CC)cc2)c2cccc(OC)c2)C[C@H]1C` [SNC80]: the Erk1/2 phosphorylation result in assay [1] (agonist alone) is listed as “large but transient increase”. Further, in the assay with trimeric Gαi:βγ complex (agonist alone), the “BRET between Gαi1 and Gγ2” value is on record as “decrease”.

In the case of `OC1C2OP(O)(=S)OCC2OC1n1cnc2cc(Cl)c(Cl)cc21` (stereo not drawn) [Sp-5,6-DCI-cBIMPS], the “SNC80-induced Erk1/2 phosphorylation” value in assay [1] is reported as “potentiated”. As to `C=C[C@@]1(C)CC(=O)[C@]2(O)[C@@]3(C)[C@@H](O)CCC(C)(C)[C@@H]3[C@H](O)[C@H](OC(C)=O)[C@@]2(C)O1` [forskolin], the “fold enrichment of R:Gαi3 complexes” value in the assay with R:Gαi3 complexes was 3.8 (SD±0.99) fold. In addition, the “conformation of the trimeric G-protein complex” value in the assay with trimeric Gαi:βγ complex (treatment alone, without SNC80) is “no effect”. Regarding “QGDSADSFFIVESGE (not fully specified; listed as Homo sapiens) [Reggai peptide, PKA RIIβ-derived 15 amino acid peptide; applied to cells as fusion with GST, TAT and Flag]”, in the assay on Gαs- to Gαi-cascades (only one cascade activated), the “sole activation of either cascade (Gαs or Gαi)” value is “no effect”. Moreover, in the assay with Gαs- to Gαi-cascades (simultaneous activation of both types of receptors), the “Gαs triggered and PKA-mediated elevation of Gαi activities” value is given as “abolished”. Besides, the PKA holoenzyme dissociation result in assay [2] is “Neither Reggai nor TAT control peptide pre-treatment of HEK293T cells had any effect”. Besides, the “potentiation of SNC80-mediated Erk1/2 phosphorylation using RII/RegII subunit activators” value in assay [1] (fusion peptides ~3 μM, 30 minutes) is given as “prevented”.
